Assay results published in the supplement of paper PMC13380429.

Tests used:
Settings in all cases: 72 h
[1] = tested on: Caco-2; assay: cell viability relative to DMSO; higher = less toxic
[2] = tested on: Calu-3; assay: as above
[3] = tested on: HepG2; assay: as above
[4] = tested on: U2OS; assay: as above
[5] = tested on: Vero E6; assay: as above
[6] = tested on: Caco-2; assay: relative viability EC50 (midpoint between 100% and the lowest measured viability); higher = less toxic
[7] = tested on: Calu-3; assay: as above
[8] = tested on: HepG2; assay: as above
[9] = tested on: U2OS; assay: as above
[10] = tested on: Vero E6; assay: as above
[11] = tested on: Caco-2; assay: drug sensitivity score (DSS) for viability; higher = more toxic; extreme values may be limits of the assay
[12] = tested on: Calu-3; assay: as above
[13] = tested on: HepG2; assay: as above
[14] = tested on: U2OS; assay: as above
[15] = tested on: Vero E6; assay: as above

CCNC1(C(N)=O)CCN(c2ncnc3c2nc(-c2ccccc2Cl)n3-c2ccc(Cl)cc2)CC1 [CP-945,598]
cell viability ([1]; 1 nM): 96.2%
cell viability ([1]; 10 nM): 98.9%
cell viability ([1]; 100 nM): 88.3%
cell viability ([1]; 1000 nM): 80.7%
cell viability ([1]; 10000 nM): 89.3%
cell viability ([2]; 1 nM): 109%
cell viability ([2]; 10 nM): 102%
cell viability ([2]; 100 nM): 97.5%
cell viability ([2]; 1000 nM): 108%
cell viability ([2]; 10000 nM): 104%
cell viability ([3]; 1 nM): 103%
cell viability ([3]; 10 nM): 95.6%
cell viability ([3]; 100 nM): 100%
cell viability ([3]; 1000 nM): 95.3%
cell viability ([3]; 10000 nM): 86.6%
cell viability ([4]; 1 nM): 104%
cell viability ([4]; 10 nM): 104%
cell viability ([4]; 100 nM): 101%
cell viability ([4]; 1000 nM): 98.1%
cell viability ([4]; 10000 nM): 95.7%
cell viability ([5]; 1 nM): 101%
cell viability ([5]; 10 nM): 103%
cell viability ([5]; 100 nM): 98.6%
cell viability ([5]; 1000 nM): 101%
cell viability ([5]; 10000 nM): 104%
relative viability EC50 [6]: > 10 µM
relative viability EC50 [7]: > 10 µM
relative viability EC50 [8]: > 10 µM
relative viability EC50 [9]: > 10 µM
relative viability EC50 [10]: > 10 µM
drug sensitivity score [11]: 3.1
drug sensitivity score [12]: 0
drug sensitivity score [13]: 0.4
drug sensitivity score [14]: 0
drug sensitivity score [15]: 0

S=C(S)OC1CC2CC1C1CCCC21 (stereo not given) [D609]
cell viability ([1]; 1 nM): 100%
cell viability ([1]; 10 nM): 99.2%
cell viability ([1]; 100 nM): 102%
cell viability ([1]; 1000 nM): 105%
cell viability ([1]; 10000 nM): 102%
cell viability ([2]; 1 nM): 99.3%
cell viability ([2]; 10 nM): 102%
cell viability ([2]; 100 nM): 104%
cell viability ([2]; 1000 nM): 103%
cell viability ([2]; 10000 nM): 98%
cell viability ([3]; 1 nM): 103%
cell viability ([3]; 10 nM): 98.7%
cell viability ([3]; 100 nM): 102%
cell viability ([3]; 1000 nM): 100%
cell viability ([3]; 10000 nM): 108%
cell viability ([4]; 1 nM): 100%
cell viability ([4]; 10 nM): 106%
cell viability ([4]; 100 nM): 96.3%
cell viability ([4]; 1000 nM): 102%
cell viability ([4]; 10000 nM): 96.6%
cell viability ([5]; 1 nM): 98.7%
cell viability ([5]; 10 nM): 98%
cell viability ([5]; 100 nM): 102%
cell viability ([5]; 1000 nM): 96%
cell viability ([5]; 10000 nM): 98.5%
relative viability EC50 [6]: > 10 µM
relative viability EC50 [7]: > 10 µM
relative viability EC50 [8]: > 10 µM
relative viability EC50 [9]: > 10 µM
relative viability EC50 [10]: > 10 µM
drug sensitivity score [11]: 0
drug sensitivity score [12]: 0
drug sensitivity score [13]: 0
drug sensitivity score [14]: 0
drug sensitivity score [15]: 0

CN1[C@@H]2CC[C@H]1C[C@@H](OC(=O)N1Cc3ccccc3NC1=O)C2 [DAU-5884]
cell viability ([1]; 1 nM): 93.3%
cell viability ([1]; 10 nM): 91.7%
cell viability ([1]; 100 nM): 89.5%
cell viability ([1]; 1000 nM): 97.3%
cell viability ([1]; 10000 nM): 92.7%
cell viability ([2]; 1 nM): 96.5%
cell viability ([2]; 10 nM): 105%
cell viability ([2]; 100 nM): 98.1%
cell viability ([2]; 1000 nM): 99.3%
cell viability ([2]; 10000 nM): 94.4%
cell viability ([3]; 1 nM): 105%
cell viability ([3]; 10 nM): 93.3%
cell viability ([3]; 100 nM): 94.5%
cell viability ([3]; 1000 nM): 110%
cell viability ([3]; 10000 nM): 97.3%
cell viability ([4]; 1 nM): 97.2%
cell viability ([4]; 10 nM): 102%
cell viability ([4]; 100 nM): 94.4%
cell viability ([4]; 1000 nM): 100%
cell viability ([4]; 10000 nM): 100%
cell viability ([5]; 1 nM): 101%
cell viability ([5]; 10 nM): 94.6%
cell viability ([5]; 100 nM): 97.9%
cell viability ([5]; 1000 nM): 96.8%
cell viability ([5]; 10000 nM): 91.3%
relative viability EC50 [6]: > 10 µM
relative viability EC50 [7]: > 10 µM
relative viability EC50 [8]: > 10 µM
relative viability EC50 [9]: > 10 µM
relative viability EC50 [10]: > 10 µM
drug sensitivity score [11]: 0
drug sensitivity score [12]: 0
drug sensitivity score [13]: 0
drug sensitivity score [14]: 0
drug sensitivity score [15]: 0

CCCC[C@@]1(C2CCCC2)Cc2cc(OCCCC(=O)O)c(Cl)c(Cl)c2C1=O [DCPIB]
cell viability ([1]; 1 nM): 105%
cell viability ([1]; 10 nM): 108%
cell viability ([1]; 100 nM): 103%
cell viability ([1]; 1000 nM): 88.3%
cell viability ([1]; 10000 nM): 85.8%
cell viability ([2]; 1 nM): 87%
cell viability ([2]; 10 nM): 96.4%
cell viability ([2]; 100 nM): 106%
cell viability ([2]; 1000 nM): 89.1%
cell viability ([2]; 10000 nM): 118%
cell viability ([3]; 1 nM): 109%
cell viability ([3]; 10 nM): 98.1%
cell viability ([3]; 100 nM): 99.1%
cell viability ([3]; 1000 nM): 92.5%
cell viability ([3]; 10000 nM): 94.8%
cell viability ([4]; 1 nM): 95.7%
cell viability ([4]; 10 nM): 90.4%
cell viability ([4]; 100 nM): 97.4%
cell viability ([4]; 1000 nM): 93.9%
cell viability ([4]; 10000 nM): 94.5%
cell viability ([5]; 1 nM): 109%
cell viability ([5]; 10 nM): 109%
cell viability ([5]; 100 nM): 99.7%
cell viability ([5]; 1000 nM): 100%
cell viability ([5]; 10000 nM): 101%
relative viability EC50 [6]: > 10 µM
relative viability EC50 [7]: > 10 µM
relative viability EC50 [8]: > 10 µM
relative viability EC50 [9]: > 10 µM
relative viability EC50 [10]: > 10 µM
drug sensitivity score [11]: 0.9
drug sensitivity score [12]: 0
drug sensitivity score [13]: 0
drug sensitivity score [14]: 0
drug sensitivity score [15]: 0

CCN(c1nc(N)c(C(=O)NC(=N)N)nc1Cl)C(C)C [EIPA]
cell viability ([1]; 1 nM): 90.8%
cell viability ([1]; 10 nM): 104%
cell viability ([1]; 100 nM): 101%
cell viability ([1]; 1000 nM): 100%
cell viability ([1]; 10000 nM): 105%
cell viability ([2]; 1 nM): 92.4%
cell viability ([2]; 10 nM): 104%
cell viability ([2]; 100 nM): 91.9%
cell viability ([2]; 1000 nM): 102%
cell viability ([2]; 10000 nM): 84.9%
cell viability ([3]; 1 nM): 100%
cell viability ([3]; 10 nM): 97.4%
cell viability ([3]; 100 nM): 101%
cell viability ([3]; 1000 nM): 85.6%
cell viability ([3]; 10000 nM): 86.5%
cell viability ([4]; 1 nM): 99.7%
cell viability ([4]; 10 nM): 100%
cell viability ([4]; 100 nM): 99.8%
cell viability ([4]; 1000 nM): 102%
cell viability ([4]; 10000 nM): 93.8%
cell viability ([5]; 1 nM): 103%
cell viability ([5]; 10 nM): 94.2%
cell viability ([5]; 100 nM): 96.2%
cell viability ([5]; 1000 nM): 94.2%
cell viability ([5]; 10000 nM): 104%
relative viability EC50 [6]: > 10 µM
relative viability EC50 [7]: > 10 µM
relative viability EC50 [8]: > 10 µM
relative viability EC50 [9]: > 10 µM
relative viability EC50 [10]: > 10 µM
drug sensitivity score [11]: 0
drug sensitivity score [12]: 0.2
drug sensitivity score [13]: 1.2
drug sensitivity score [14]: 0
drug sensitivity score [15]: 0

O=C(/C=C/c1cccnc1)NCCCCC1CCN(C(=O)c2ccccc2)CC1 [FK-866]
cell viability ([1]; 1 nM): 93.7%
cell viability ([1]; 10 nM): 65%
cell viability ([1]; 100 nM): 5.8%
cell viability ([1]; 1000 nM): 5%
cell viability ([1]; 10000 nM): 5.6%
cell viability ([2]; 1 nM): 110%
cell viability ([2]; 10 nM): 112%
cell viability ([2]; 100 nM): 7%
cell viability ([2]; 1000 nM): 5.1%
cell viability ([2]; 10000 nM): 4.6%
cell viability ([3]; 1 nM): 84.6%
cell viability ([3]; 10 nM): 57.9%
cell viability ([3]; 100 nM): 16.6%
cell viability ([3]; 1000 nM): 11.3%
cell viability ([3]; 10000 nM): 11.7%
cell viability ([4]; 1 nM): 97.8%
cell viability ([4]; 10 nM): 98.1%
cell viability ([4]; 100 nM): 0%
cell viability ([4]; 1000 nM): -0.5%
cell viability ([4]; 10000 nM): 0%
cell viability ([5]; 1 nM): 106%
cell viability ([5]; 10 nM): 106%
cell viability ([5]; 100 nM): 2.7%
cell viability ([5]; 1000 nM): 1.2%
cell viability ([5]; 10000 nM): 1.9%
relative viability EC50 [6]: 0.0134 µM
relative viability EC50 [7]: 0.0392 µM
relative viability EC50 [8]: 0.0092 µM
relative viability EC50 [9]: 0.0303 µM
relative viability EC50 [10]: 0.0361 µM
drug sensitivity score [11]: 33.2
drug sensitivity score [12]: 28.1
drug sensitivity score [13]: 31.9
drug sensitivity score [14]: 30.7
drug sensitivity score [15]: 29.4

Cc1c(CN2CCN(C(=O)[C@H](C)O)CC2)sc2c(N3CCOCC3)nc(-c3cnc(N)nc3)nc12 [GDC-0980]
cell viability ([1]; 1 nM): 99.4%
cell viability ([1]; 10 nM): 88.5%
cell viability ([1]; 100 nM): 93.1%
cell viability ([1]; 1000 nM): 47.8%
cell viability ([1]; 10000 nM): 22.4%
cell viability ([2]; 1 nM): 107%
cell viability ([2]; 10 nM): 101%
cell viability ([2]; 100 nM): 93.6%
cell viability ([2]; 1000 nM): 42.2%
cell viability ([2]; 10000 nM): 19.2%
cell viability ([3]; 1 nM): 104%
cell viability ([3]; 10 nM): 102%
cell viability ([3]; 100 nM): 89.9%
cell viability ([3]; 1000 nM): 49.5%
cell viability ([3]; 10000 nM): 15.9%
cell viability ([4]; 1 nM): 101%
cell viability ([4]; 10 nM): 98%
cell viability ([4]; 100 nM): 98.8%
cell viability ([4]; 1000 nM): 78.9%
cell viability ([4]; 10000 nM): 18.1%
cell viability ([5]; 1 nM): 96.5%
cell viability ([5]; 10 nM): 101%
cell viability ([5]; 100 nM): 87.7%
cell viability ([5]; 1000 nM): 62.9%
cell viability ([5]; 10000 nM): 23.4%
relative viability EC50 [6]: 0.561 µM
relative viability EC50 [7]: 0.537 µM
relative viability EC50 [8]: 0.67 µM
relative viability EC50 [9]: 1.53 µM
relative viability EC50 [10]: 0.899 µM
drug sensitivity score [11]: 11
drug sensitivity score [12]: 11.9
drug sensitivity score [13]: 11.1
drug sensitivity score [14]: 7.8
drug sensitivity score [15]: 8.8
